Source: ChEMBL document CHEMBL6092192 (J Med Chem, 2024)
The source made the active and inactive calls. No cut-off for these calls is given here.

Columns and labels:
SW620/AD300 [1] = assay: Antitumor activity against human SW620/AD300 cells xenografted in male BALB/c nude mouse model assessed as increase in apoptosis at 100 mg/kg/day, IG in presence of paclitaxel by tunel staining based immunofluorescence analysis; format: functional, organism-based
[2] = target: Multidrug resistance-associated protein 1 (Homo sapiens, UniProt P33527); assay: Induction of thermal stabilization of ABCC1 in human SW620/AD300 cells at 200 uM measured after 30 mins by thermal shift assay; format: cell-based; conditions: sw620/ad300, 0.5 h
[3] = Toxicity in BALB/c nude mouse xenografted with […] CT26/TAXOL cells assessed as effect on brain at 100 mg/kg/day, IG measured after 14 days by H and E staining based analysis; format: organism-based; conditions: in vivo, po, 336 h, time 14 day
[4] = Toxicity in BALB/c nude mouse xenografted with […] CT26/TAXOL cells assessed as effect on spleen at 100 mg/kg/day, IG measured after 14 days by H and E staining based analysis; format: organism-based; conditions: in vivo, po, 336 h, time 14 day
[5] = Cmax in 12 hrs fasted Sprague-Dawley rat at 10 mg/kg, po measured upto 720 mins by HPLC-MS/MS analysis; format: ADME, organism-based; conditions: in vivo
CT26/TAXOL [6] = assay: Antitumor T-cell immune response in […] cells xenografted in BALB/c nude mouse model assessed as increase in CD8+ T-cell infiltration at 100 mg/kg/day, IG in presence of anti-PD-1/paclitaxel measured after 14 days by immunofluorescence staining based analysis; format: functional, organism-based; conditions: time 14.0 day
SW620/AD300 [7] = assay: Reversal of paclitaxel resistance in human SW620/AD300 cells assessed as reversal fold by measuring ratio of paclitaxel IC50 to paclitaxel IC50 in presence of test compound at 4 uM incubated for 72 hrs by MTT assay; format: functional
HEK293 [8] = assay: Cytotoxicity against HEK293 cells transfected with pcDNA3.1 assessed as survival rate at 5 uM measured after 72 hrs by MTT assay relative to control; format: functional; conditions: Homo sapiens, read-out: Survival
HEK293 [9] = assay: Cytotoxicity against HEK293 cells harbouring ABCB1 assessed as survival rate at 5 uM measured after 72 hrs by MTT assay relative to control; format: functional; conditions: Homo sapiens, read-out: Survival
KB-C2 = assay: Cytotoxicity against human KB-C2 cells assessed as survival rate at 2 uM measured after 72 hrs by MTT assay relative to control; format: functional; conditions: read-out: Survival
KB 3-1 = assay: Reversal of paclitaxel resistance in human KB 3-1 cells assessed as reversal fold by measuring ratio of paclitaxel IC50 to paclitaxel IC50 in presence of test compound at 4 uM incubated for 72 hrs by MTT assay; format: functional
[10] = MRT (0 to infinity) in 12 hrs fasted Sprague-Dawley rat at 1 mg/kg, iv measured upto 720 mins by HPLC-MS/MS analysis; format: ADME, organism-based; conditions: in vivo
[11] = target: T1, ATP-dependent translocase ABCB1 (Homo sapiens, UniProt P08183); assay: Inhibition of ABCB1 in human SW620/AD300 cells assessed as increase in [3H]-PTX accumulation at 2 to 4 uM incubated for 4 hrs by liquid scintillation analysis; format: cell-based; conditions: sw620/ad300, 4 h, dose 2-4 µM
[12] = target: T1, ATP-dependent translocase ABCB1; assay: Inhibition of ABCB1 in human SW620/AD300 cells assessed as decrease in [3H]-PTX efflux at 4 uM measured after 120 mins (Rvb <95%); format: cell-based; conditions: 2 h
[13] = Toxicity in BALB/c nude mouse xenografted with […] CT26/TAXOL cells assessed as effect on heart at 100 mg/kg/day, IG in presence of paclitaxel/anti-PD-1 measured after 14 days by H and E staining based analysis; format: organism-based; conditions: in vivo, po, 336 h, time 14 day
CT26/TAXOL [14] = assay: Antitumor T-cell immune response in […] cells xenografted in BALB/c nude mouse model at 100 mg/kg/day, IG in presence of anti-PD-1/paclitaxel measured after 14 days; format: functional, organism-based; conditions: time 14.0 day
SW620/AD300 [15] = assay: Antitumor activity against human SW620/AD300 cells xenografted in male BALB/c nude mouse model assessed as reduction in tumor volume at 100 mg/kg/day, IG measured after 21 days; format: functional, organism-based; conditions: time 21.0 day
CT26/TAXOL [16] = assay: Antitumor T-cell immune response in […] cells xenografted in BALB/c nude mouse model assessed as reduction in tumor growth at 100 mg/kg/day, IG measured after 14 days; format: functional, organism-based; conditions: time 14.0 day
[17] = Toxicity in BALB/c nude mouse xenografted with […] CT26/TAXOL cells assessed as effect on spleen at 100 mg/kg/day, IG in presence of paclitaxel measured after 14 days by H and E staining based analysis; format: organism-based; conditions: in vivo, po, 336 h, time 14 day
[18] = Toxicity in BALB/c nude mouse xenografted with […] CT26/TAXOL cells assessed as effect on lung at 100 mg/kg/day, IG measured after 14 days by H and E staining based analysis; format: organism-based; conditions: in vivo, po, 336 h, time 14 day
[19] = Toxicity in BALB/c nude mouse assessed as change in body weight at 100 mg/kg/day, IG measured after 21 days in presence of paclitaxel; format: organism-based; conditions: in vivo, po, 504 h, time 21 day
SW-620 = assay: Cytotoxicity against human SW620 cells assessed as survival rate at 4 uM measured after 72 hrs by MTT assay relative to control; format: functional; conditions: read-out: Survival
[20] = target: T1, ATP-dependent translocase ABCB1; assay: Induction of thermal stabilization of ABCB1 in human SW620/AD300 cells at 200 uM measured after 30 mins by thermal shift assay; format: cell-based; conditions: sw620/ad300, 0.5 h
CD8-positive T cell = assay: Activation of immune response in human CD8-positive T cell assessed as increase in granzyme level at 4 uM by ELISA method; format: functional, cell-based
SW620/AD300 [21] = assay: Antitumor activity against human SW620/AD300 cells xenografted in male BALB/c nude mouse model assessed as reduction in tumor volume at 100 mg/kg/day, IG measured after 21 days in presence of paclitaxel; format: functional, organism-based; conditions: time 21.0 day
[22] = Toxicity in BALB/c nude mouse xenografted with […] CT26/TAXOL cells assessed as effect on brain at 100 mg/kg/day, IG in presence of paclitaxel/anti-PD-1 measured after 14 days by H and E staining based analysis; format: organism-based; conditions: in vivo, po, 336 h, time 14 day
[23] = Toxicity in BALB/c nude mouse xenografted with […] CT26/TAXOL cells assessed as mortality at 100 mg/kg/day, IG measured upto 14 days in presence of paclitaxel; format: organism-based; conditions: in vivo, po, 336 h, time < 14 day
[24] = Toxicity in BALB/c nude mouse xenografted with […] CT26/TAXOL cells assessed as effect on heart at 100 mg/kg/day, IG in presence of paclitaxel measured after 14 days by H and E staining based analysis; format: organism-based; conditions: in vivo, po, 336 h, time 14 day
[25] = Tmax in 12 hrs fasted Sprague-Dawley rat at 10 mg/kg, po measured upto 720 mins by HPLC-MS/MS analysis; format: ADME, organism-based; conditions: in vivo
HEK293 [26] = assay: Cytotoxicity against HEK293 cells transfected with pcDNA3.1 assessed as survival rate at 2 uM measured after 72 hrs by MTT assay relative to control; format: functional; conditions: Homo sapiens, read-out: Survival
Cytochrome P450 3A4 = Cytochrome P450 3A4 (Homo sapiens, UniProt P08684); assay: Activation of recombinant CYP3A4 in human liver microsomes at 4 uM measured after 30 mins in presence of NADPH generating system by fluorescence based analysis; format: ADME, Microsome; conditions: 0.5 h
Chain of Cytochrome P450 3A4 (P08684 whole entry): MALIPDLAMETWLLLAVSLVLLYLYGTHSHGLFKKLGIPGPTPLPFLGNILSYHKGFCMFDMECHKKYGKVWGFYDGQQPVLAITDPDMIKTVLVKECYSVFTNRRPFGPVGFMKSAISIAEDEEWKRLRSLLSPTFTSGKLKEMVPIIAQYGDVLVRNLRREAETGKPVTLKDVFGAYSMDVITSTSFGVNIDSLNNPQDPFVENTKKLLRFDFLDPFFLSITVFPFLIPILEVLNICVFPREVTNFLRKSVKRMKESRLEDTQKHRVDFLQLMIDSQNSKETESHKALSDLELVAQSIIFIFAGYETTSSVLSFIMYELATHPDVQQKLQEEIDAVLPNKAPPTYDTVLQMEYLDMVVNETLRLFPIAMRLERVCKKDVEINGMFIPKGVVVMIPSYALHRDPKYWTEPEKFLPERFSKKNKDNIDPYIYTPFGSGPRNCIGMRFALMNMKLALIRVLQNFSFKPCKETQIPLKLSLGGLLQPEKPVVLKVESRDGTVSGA

T1 sequence (P08183 whole entry): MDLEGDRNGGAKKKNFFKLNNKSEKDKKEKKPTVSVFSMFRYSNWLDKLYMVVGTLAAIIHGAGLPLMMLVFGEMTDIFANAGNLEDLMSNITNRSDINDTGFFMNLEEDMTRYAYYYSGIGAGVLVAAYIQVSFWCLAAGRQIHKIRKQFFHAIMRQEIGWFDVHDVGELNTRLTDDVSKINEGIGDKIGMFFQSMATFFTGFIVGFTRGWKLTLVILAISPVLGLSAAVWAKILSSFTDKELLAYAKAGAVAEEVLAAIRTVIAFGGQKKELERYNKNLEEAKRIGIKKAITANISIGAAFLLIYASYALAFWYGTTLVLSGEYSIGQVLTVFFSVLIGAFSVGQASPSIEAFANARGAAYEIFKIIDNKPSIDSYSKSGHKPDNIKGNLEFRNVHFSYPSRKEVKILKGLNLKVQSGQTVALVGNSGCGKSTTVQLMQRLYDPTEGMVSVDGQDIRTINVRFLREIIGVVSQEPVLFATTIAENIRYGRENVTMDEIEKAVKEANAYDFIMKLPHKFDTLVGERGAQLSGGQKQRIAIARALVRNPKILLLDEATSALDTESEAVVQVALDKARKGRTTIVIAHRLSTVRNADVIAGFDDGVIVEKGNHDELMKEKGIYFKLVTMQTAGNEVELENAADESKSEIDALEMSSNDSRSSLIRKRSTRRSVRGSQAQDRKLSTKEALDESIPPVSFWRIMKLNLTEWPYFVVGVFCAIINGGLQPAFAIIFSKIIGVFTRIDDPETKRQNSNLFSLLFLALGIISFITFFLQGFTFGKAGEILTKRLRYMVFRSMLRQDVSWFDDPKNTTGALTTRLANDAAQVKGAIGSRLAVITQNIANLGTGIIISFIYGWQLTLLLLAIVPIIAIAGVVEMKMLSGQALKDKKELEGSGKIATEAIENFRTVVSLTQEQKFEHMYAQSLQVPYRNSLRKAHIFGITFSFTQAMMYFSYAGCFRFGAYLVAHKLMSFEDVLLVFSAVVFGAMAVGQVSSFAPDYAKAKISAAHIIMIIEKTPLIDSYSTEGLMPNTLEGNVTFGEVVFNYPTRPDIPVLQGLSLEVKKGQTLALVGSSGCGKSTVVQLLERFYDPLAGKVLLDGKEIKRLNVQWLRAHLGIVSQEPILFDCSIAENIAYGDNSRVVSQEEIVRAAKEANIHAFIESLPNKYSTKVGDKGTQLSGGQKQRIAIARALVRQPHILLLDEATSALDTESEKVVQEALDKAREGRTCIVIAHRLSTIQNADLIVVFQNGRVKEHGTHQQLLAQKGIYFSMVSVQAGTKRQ
Chain of Multidrug resistance-associated protein 1 (P33527 whole entry): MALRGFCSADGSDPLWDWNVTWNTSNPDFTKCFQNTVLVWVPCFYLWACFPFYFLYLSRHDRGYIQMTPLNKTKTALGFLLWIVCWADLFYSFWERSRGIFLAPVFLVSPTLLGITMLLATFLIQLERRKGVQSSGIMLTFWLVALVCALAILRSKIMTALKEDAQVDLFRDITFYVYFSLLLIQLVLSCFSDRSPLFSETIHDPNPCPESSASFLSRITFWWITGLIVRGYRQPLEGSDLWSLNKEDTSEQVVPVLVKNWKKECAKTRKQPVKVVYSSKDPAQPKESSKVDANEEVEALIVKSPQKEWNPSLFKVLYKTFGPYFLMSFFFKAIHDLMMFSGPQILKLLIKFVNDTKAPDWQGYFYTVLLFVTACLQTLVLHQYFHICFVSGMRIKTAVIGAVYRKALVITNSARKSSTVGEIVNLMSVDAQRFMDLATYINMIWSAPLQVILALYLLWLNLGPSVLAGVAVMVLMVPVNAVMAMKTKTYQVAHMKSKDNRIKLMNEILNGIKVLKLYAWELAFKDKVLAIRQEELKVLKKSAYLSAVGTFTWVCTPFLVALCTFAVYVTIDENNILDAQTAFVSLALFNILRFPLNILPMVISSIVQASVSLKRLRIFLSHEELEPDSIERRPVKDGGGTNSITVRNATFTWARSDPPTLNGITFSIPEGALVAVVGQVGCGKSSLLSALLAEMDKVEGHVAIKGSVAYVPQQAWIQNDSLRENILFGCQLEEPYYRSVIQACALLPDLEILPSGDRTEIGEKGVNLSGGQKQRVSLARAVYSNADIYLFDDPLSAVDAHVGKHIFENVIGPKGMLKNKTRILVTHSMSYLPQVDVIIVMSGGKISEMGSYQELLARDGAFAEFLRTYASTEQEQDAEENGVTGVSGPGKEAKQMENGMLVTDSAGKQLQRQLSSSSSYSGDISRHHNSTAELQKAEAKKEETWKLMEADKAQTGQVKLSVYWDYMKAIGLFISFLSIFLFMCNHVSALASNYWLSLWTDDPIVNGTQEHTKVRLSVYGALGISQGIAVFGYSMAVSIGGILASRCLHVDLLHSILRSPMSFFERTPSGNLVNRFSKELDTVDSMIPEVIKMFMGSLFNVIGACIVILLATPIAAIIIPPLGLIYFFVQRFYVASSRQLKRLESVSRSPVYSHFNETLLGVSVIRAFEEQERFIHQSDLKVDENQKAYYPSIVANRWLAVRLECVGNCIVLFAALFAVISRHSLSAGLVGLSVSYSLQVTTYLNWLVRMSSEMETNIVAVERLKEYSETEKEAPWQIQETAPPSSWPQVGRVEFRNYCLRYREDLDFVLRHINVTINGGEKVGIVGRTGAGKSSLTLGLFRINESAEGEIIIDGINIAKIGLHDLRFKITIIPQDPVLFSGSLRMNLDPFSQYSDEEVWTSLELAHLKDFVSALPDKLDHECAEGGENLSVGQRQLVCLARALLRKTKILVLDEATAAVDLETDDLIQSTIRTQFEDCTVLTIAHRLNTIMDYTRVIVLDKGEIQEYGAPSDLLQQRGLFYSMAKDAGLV

With `O=c1c2c([nH]c3nc(SCc4nc5ccccc5s4)nn13)CCC2` the Activity (SW620/AD300 [1]) was “Active”, the Activity [2] was “Not_active” and the Activity [3] was “Non-toxic”. For the same compound, the Activity [4] was “Non-toxic”, the Cmax [5] was 504 ng/mL and the Activity (CT26/TAXOL [6]) was “Active”. For the same compound, the “Ratio IC50” value (SW620/AD300 [7]) was 730.33, the viability at 5 µM (HEK293 [8]) was 94.3% and the viability at 5 µM (HEK293 [9]) was 91.2%. For the same compound, the viability at 2 µM (KB-C2) was 96.2%, the “Ratio IC50” value (KB 3-1) was 1.39 and the MRT inf [10] was 5.49 h. The “inhibition (INH)” value [11] was “Active”, the inhibition at 4 µM [12] was 71% and the Activity [13] was “Non-toxic”. For the same compound, the Activity (CT26/TAXOL [14]) was “Active”, the Activity (SW620/AD300 [15]) was “Active; Compound Showed Negligible Effect” and the Activity (CT26/TAXOL [16]) was “Not active; Compound Showed Negligible Effect”. For the same compound, the Activity [17] was “Non-toxic”, the Activity [18] was “Non-toxic” and the Activity [19] was “Non-toxic”. For the same compound, the viability at 4 µM (SW-620) was 92.4%, the Activity [20] was “Active” and the Activity (CD8-positive T cell) was “Active”. For the same compound, the Activity (SW620/AD300 [21]) was “Active”, the Activity [22] was “Non-toxic” and the Activity [23] was “Non-toxic”. The Activity [24] was “Non-toxic”, the Tmax [25] was 6 h and the viability at 2 µM (HEK293 [26]) was 97.8%. For the same compound, the Activity (Cytochrome P450 3A4) was “Active”.
